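In this assay, cells in 96-well plates receive the compound at five concentrations for 48 hours. Endpoints are linearly interpolated between the surrounding concentrations. GI50 = concentration required for 50% inhibition of growth. TGI: concentration producing complete growth inhibition.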
Experiments:
Assay in all cases: NCI tumour cell line growth inhibition, 48 h
[1] = system: HCT-116 colon
[2] = system: HCT-15 colon
[3] = system: MOLT-4 leukemia
[4] = system: OVCAR-3 ovarian
[5] = system: PC-3 prostate
[6] = system: SF-295 CNS
[7] = system: SK-MEL-28 melanoma
[8] = system: SNB-75 CNS
[9] = system: UACC-62 melanoma
[10] = system: ACHN renal

SMILES	GI50 [1] [µM]	TGI [1] [µM]	GI50 [2] [µM]	TGI [2] [µM]	GI50 [3] [µM]	TGI [3] [µM]	GI50 [4] [µM]	TGI [4] [µM]	GI50 [5] [µM]	TGI [5] [µM]	GI50 [6] [µM]	TGI [6] [µM]	GI50 [7] [µM]	TGI [7] [µM]	GI50 [8] [µM]	TGI [8] [µM]	GI50 [9] [µM]	TGI [9] [µM]	TGI [10] [µM]	GI50 [10] [µM]
COC(=O)[C@@H](C)C[C@H](Cc1ccccc1)NC(=O)c1nc([C@@H](C[C@H](C(C)C)N(C)C(=O)[C@@H](NC(=O)[C@H]2CCCN2C)C(C)C)OC(C)=O)sc1C	< 0.0025	> 25	0.0119	> 25	0.00278	> 25	< 0.0025	> 25	< 0.0025	> 25	< 0.0025	> 25	0.0165	> 25	< 0.0025	> 25	< 0.0025	> 25		
CN1CCCNCCN(CCc2ccccn2)CCCN(C)CC1		> 100		> 62.6		> 100		> 100				> 100		> 100		> 100		> 100	> 100	
CCC1CCC2CCCC(C)N12 (stereo not given)		> 100		> 100		> 100		> 100				> 100		> 100		> 100		> 100	> 100	
CC(C)(C)C1=NC(S)NC(CCC(=O)Nc2ccccc2[N+](=O)[O-])=C1 (stereo not given)		> 100		> 100		> 100		> 100				> 100		> 100				> 100	> 100	
c1ccc(-c2nnc(-c3nn(-c4ccccc4)c4nc5ccccc5nc34)o2)cc1		> 100		> 100		71.6		> 100				> 100		> 100		> 100		> 100	> 100	
CC(=O)OCCc1cccnc1/C=N/O		> 100		> 100		> 100		> 100				> 100		> 100		> 100		> 100	> 100	
O=C(O/N=C1/CCC/C1=C\c1ccccc1)c1ccc([N+](=O)[O-])cc1		> 100		> 100		> 100		> 100				> 100		> 100		91.3		> 100	> 100	
CN(C)S(=O)(=O)Nc1ccccn1		> 100		> 100				> 100		> 100		> 100		> 100		> 100		> 100	> 100	
COC(=O)c1c2c(c(C)[n+]([O-])c1C)C(=O)C=CC2=O	0.945	7.5	1.43	3.31	1.69	4.65	0.314	1.05			1.78	3.34	1.96	3.6	1.72	3.12	1.63	3.21	3.77	1.9
CCCNC(=O)OCc1c(COC(=O)NCCC)c(-c2ccc(Cl)c(Cl)c2)n2c1CCC2		17.7		19.8		87.7		41.5		28.4		12.3						13.3	6.28	
NC1(CCCCCCCCCCC(=O)O)CNCCNCCNCCNC1		81.2				> 100		> 100				> 100		> 100				> 100	> 100	
Clc1cccc(NC=Nc2ccc(-c3nc4ccccc4s3)cc2)c1	11	24.1	9.48	20			9.32	22.7	12.1	> 50	17.4	> 50	0.143	18.4			13	38.1	27.6	11.7
COc1cc([C@@H]2c3cc4c(cc3[C@@H](NC(=O)c3cccc([N+](=O)[O-])c3)C3COC(=O)[C@@H]32)OCO4)cc(OC)c1O (stereo not given in full)		> 34.8		4.31		> 100		27.9				3.99		> 43.8		9.55		7.54	1.62	
Cc1cccc2c3ccc4c(c3n(C)c12)C(=O)C=CC4=O		> 100				> 100		> 100				> 100		> 100		> 100		> 100		
O=C(Nc1ccccc1[N+](=O)[O-])c1ccccc1		> 100		> 100		> 100		> 100				> 100		> 100		> 100		> 100	> 100	
CCCCn1/c(=N/C(=S)N(C)C)ss/c1=N\C(=S)N(C)C		> 100		> 100		> 100						> 100		> 100		> 100		> 100	> 100	
COc1cc2c(cc1OC)C1C=NC(C(=O)O)(C2)c2ccccc21 (stereo not given)		> 100		> 100		> 100		> 100				> 100				> 100		> 100		
O=C1NC(=O)C2C(=O)NC(=O)C1C2(c1ccccc1)c1ccc(Cl)cc1 (stereo not given)				> 100		> 100		> 100				> 100		> 100		> 100		> 100	> 100	
CN(C)c1ccc(/C=C2\C[N+](C)(C)C/C(=C\c3ccc(N(C)C)cc3)C2=O)cc1		22.5		> 100		59.3		17.2				> 100		37.4		67.3		30.6	> 100	
C[Si](C)(C)c1ccc(CC2(Cc3ccc([Si](C)(C)C)cc3)CCNC2)cc1		3.17		4.86				3.93				6.86		5.05		7.67		3.96	9.37	
O=[N+]([O-])c1ccc(NSc2ccccc2)cc1		> 100		> 100		49.4		> 100				79		> 100				55.7	> 100	
OCc1c(-c2cccc3ccccc23)sc(-c2cccc3ccccc23)c1CO				27.9		42.2		26.5				28.2		23.3		30.7		23.5	25.1	

Source: PubChem BioAssay (NCI)
